Assay [1] has as its target T1, purified sigma-1 receptor (Cavia porcellus, UniProt Q60492).
T1 construct: made in house; host or cells: E. coli BL21 DE3
The assay is described as follows: Competitive displacement of [3H]-(+)-pentazocine at the pure sigma-1 receptor. It is filed as binding, guinea pig. As to conditions: read-out: Ki Pure σ-1R. The procedure: A guinea pig sigma-1 receptor was purified as previously described (Ramachandran et al., Protein Expr. Purif., 2007. 51(2): 283-92). The pMal P2X plasmid (New England Biolabs) encoding the guinea pig sigma-1 receptor on the C-terminus of the E. coli Maltose Binding Protein was used for purification. The sigma-1 receptor on its C-terminus carried a hexa-histadine epitope tag. Protein was expressed in the E. coli strain BL21 DE3 (Novagen) with 0.6 mM IPTG. The E. coli pellet was sonicated and centrifuged at 100,000 g for 1 hour to separate the particulate and soluble fractions. The particulate fraction was extracted with Triton X-100, centrifuged and the extract was loaded onto an amylose resin (New England Biolabs, E-802). After washing the resin with buffer containing 0.5% Triton X-100, the MBP-sigma-1 receptor fusion protein was eluted with buffer containing 10 mM maltose.
The MBP-sigma-1-receptor fusion protein was cleaved with Factor Xa protease (Novagen) at room temperature for 24-48 hours and the cleavage was monitored with SDS-polyacrylamide gel electrophoresis. The sigma-1 receptor from the Factor Xa cleavage was purified with a HIS-Select HC Nickel affinity gel (Sigma-Aldrich P6611) in a batch format. The resin was washed with buffer containing 0.5% Triton X-100 detergent and the beads were separated by a brief centrifugation at 4000 rpm in a microcentrifuge. After washing to remove MBP, the pure sigma-1 receptor was eluted in buffer containing 250 mM imidazole.
To remove the undigested MBP-sigma-1 receptor fusion protein that is carried over in the Ni^2+ purification, the eluate from the Ni^2+ purification was incubated with Anti-MBP antibody conjugated to agarose (Vector Laboratories, Burlingame, Calif.) at 4° C. for 18-24 hours. The beads were separated by centrifugation and the supernatant contained the pure sigma-1 receptor.
Competition ligand binding to the pure sigma-1 receptor was performed as previously described. […] After incubation at 30° C. for 60 minutes, the reaction was terminated by rapid filtration through glass fiber filters (Whatman GF/B), using a Brandel cell harvester (Brandel, Gaithersburg, Md.). The glass fiber filters were pre-soaked in 0.5% polyethyleneimine (PEI) for at least 1 hour at room temperature (˜23° C.). Filters were washed 4 times with 4 mL of ice-cold 50 mM Tris-C1, pH 8.0. Radioactivity was quantified by liquid scintillation counting using a Packard model 1600 CA scintillation counter.

Assay [2] deals with T2, sigma-1 receptor (Cavia porcellus, UniProt Q60492). Kind of assay: Sigma-1 competitive binding, (+)-[3H]pentazocine, guinea pig liver membranes (Example 6).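 Also: compounds tested over serial concentrations, 45 min incubation at 30 °C with membrane preparations, read-out is displacement of bound radioligand from the receptor.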 On the set-up: from tissue; host or cells: guinea pig liver membranes.
Protocol: (§1) Minced frozen rat livers or guinea pig livers (65 g) were thawed in 100 mL homogenization buffer (10 mM phosphate buffer pH 7.4 containing 0.32M sucrose, 1 M MgSO4, 0.5 M EGTA, 1 mM phenylmethylsulphonyl fluoride (PMSF), 10 μg/mlleupeptin, 1 μg/ml pepstatin A, 10 μg/ml p-toluenesulfonyl-L-arginine methyl ester (TAME) and then homogenized on ice with a Brinkman polytron homogenizer (setting 6, 4 bursts of 10 second each) followed by a glass homogenizer (Teflon pestle by 6 slow passes at 3,000 rpm). The homogenized tissues were then centrifuged at 17,000 g for 10 minutes. The supernatants were re-centrifuged at 100,000 g for 1 hour. The microsomal pellets were resuspended in homogenization buffer, snap frozen with dry ice-ethanol, and stored at −80° C. at a final protein concentration of 20 mg/mL.
(§2) Assays for sigma-1 were performed using 10 nM (+)-[^3H]pentazocine in guinea pig liver homogenates (25 μg/well) incubated at 30° C. for 1 hour with several concentrations of competing ligands. After incubation, membranes were harvested on a 0.5% PEI-treated Whatman GF/B filters using a Brandel Cell Harvester. (+)-[^3H]pentazocine binding was determined by liquid scintillation counting. […] Serial concentrations of the compounds evaluated were added to the reactions for 45 minutes at 30° C. and the samples vacuum filtered through 0.5% polyethyleneimine (PEI) treated Whatman GF/B as described above to measure displacement of the radioligands from the sigma receptor subtypes.
The target of the next assay is T3, σ-1 Sites (Cavia porcellus, UniProt Q60492).
T3 construct: from tissue
Kind of assay: σ-1 sites radioligand binding, guinea pig liver membranes (Table 2). As to conditions: for Ki: guinea pig liver membranes; for σ-1 selectivity σ-2 Ki/σ-1 Ki: σ-2 rat liver / σ-1 guinea pig liver membranes.

For a further assay, the target named is T4, σ-2 Sites (Rattus norvegicus, UniProt Q5U3Y7).
T4 construct: from tissue
T4 sequence (Q5U3Y7 1-176): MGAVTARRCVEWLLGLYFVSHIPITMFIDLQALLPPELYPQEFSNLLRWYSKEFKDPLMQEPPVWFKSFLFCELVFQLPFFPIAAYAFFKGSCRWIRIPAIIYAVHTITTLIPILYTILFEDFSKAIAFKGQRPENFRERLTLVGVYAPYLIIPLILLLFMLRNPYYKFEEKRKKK
The assay is described as follows: σ-2 sites radioligand binding, rat liver membranes (Table 2).

The next assay concerns the target T5, sigma-2 receptor (Rattus norvegicus, UniProt Q5U3Y7).
T5 sequence (Q5U3Y7 1-176): T4 sequence (Q5U3Y7 1-176)
The assay is described as follows: Sigma-2 competitive binding, [3H]-DTG with (+)-pentazocine, rat liver membranes (Example 6). On the set-up: from tissue; host or cells: rat liver membranes.

The target of assay [3] is T2, sigma-1 receptor. The assay is described as follows: Affinity for the sigma-1 receptor (Table 3). It is filed as binding. On the set-up: from tissue.
Where [4] appears, read: guinea pig liver membranes, n = 3, read-out: Sigma 1 KD values.
Setting [5] is: rat liver membranes, n = 3, read-out: Sigma2 KD values.

“And” between values parts separate entries of the source, which are not always exact repeats. Identical values can stand only once. Like-named read-outs stand apart in the source and are kept apart here.

T2 sequence (Q60492 whole entry): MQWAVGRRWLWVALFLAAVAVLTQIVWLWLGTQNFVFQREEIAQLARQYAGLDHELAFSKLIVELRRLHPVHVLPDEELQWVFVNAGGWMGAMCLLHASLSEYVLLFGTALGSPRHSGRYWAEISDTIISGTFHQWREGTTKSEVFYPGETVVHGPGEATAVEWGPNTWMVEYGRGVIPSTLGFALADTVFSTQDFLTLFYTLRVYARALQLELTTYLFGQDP
T1 sequence (Q60492 whole entry): as above
T3 sequence (Q60492 whole entry): as above
Protocol for sigma-2 receptor: as §1, §2
Protocol for σ-1 Sites: as §2
Protocol for σ-2 Sites: as §2

One may read the Ki as a dissociation constant, usually derived from enzyme kinetics or from competition with a known ligand. In the case of `CCCCCN` [Amylamine], the Ki in assay [1] ([3H]-(+)-pentazocine 10 nM) came to 167 ± 35.2 µM.
One may read the Kd as the constant that tells how readily two partners part at equilibrium. In the case of `CN(C)CCc1c[nH]c2ccccc12` [Compound 1], the Kd on sigma-1 receptor [2] (setting [4]) was more than 50000 µM.
`CCCCNCCCc1ccc([N+](=O)[O-])cc1` [Compound 1b, N-(3-(4-Nitrophenyl)propyl)butan-1-amine]: the Ki was found to be 0.003 µM at σ-1 Sites, 0.022 µM at σ-2 Sites and 0.02 µM in assay [1] ([3H]-(+)-pentazocine). In addition, on σ-1 Sites, the “σ-1 selectivity σ-2 Ki/σ-1 Ki” value stood at 7.
Consider `CCCCCCCCCCCCNCCCc1ccccc1` [Compound 1e, N-(3-Phenylpropyl)dodecan-1-amine], for which the Ki at σ-1 Sites amounted to 5.3 µM; at σ-2 Sites, 2.1 µM; in assay [1] ([3H]-(+)-pentazocine), 0.0632 µM.
Consider `CCCCCCCCCCCCCCCCCCNCCCc1ccccc1` [Compound 1g, N-(3-Phenylpropyl)octadecan-1-amine], for which the Ki on σ-1 Sites was 34.4 µM; at σ-2 Sites it was 19.9 µM; in assay [1] ([3H]-(+)-pentazocine), 0.0422 µM. Moreover, the “σ-1 selectivity σ-2 Ki/σ-1 Ki” value on σ-1 Sites was 0.7.
In the same order, the values of `CCCCCCCCCCCCCCCCCCNCCCc1ccc([N+](=O)[O-])cc1` [Compound 1h, N-(3-(4-Nitrophenyl)propyl)octadecan-1-amine] are 26.9 µM, 8.83 µM, 0.0415 µM and 0.3.
For the compound `NCCCc1ccccc1` [Compound 2], at sigma-1 receptor [2], the “Ratio (σ2/σ1)” value is 3.92. Further, the Kd was determined as 68.9 µM at sigma-1 receptor [2] (setting [4]) and 270 µM at sigma-2 receptor (setting [5]).
As to `CCCC[N+](CCCC)(CCCC)CCCC` [Compound 3], on sigma-1 receptor [2], the Kd was determined as 54.7 µM and the “Ratio (σ2/σ1)” value is recorded as 4.90. At sigma-2 receptor, the Kd is 268 µM.
For `CCCCN(CCCC)CCCC` [Compound 6], on sigma-1 receptor [2], the “Ratio (σ2/σ1)” value was determined as 6.41. For the same compound, the Kd came to 7 µM on sigma-1 receptor [2] (setting [4]) and 44.8 µM on sigma-2 receptor (setting [5]).
As to `CCCCCCCCN(CCCCCCCC)CCCc1ccc(F)cc1` [Compound 8, N,N-Dioctyl-3-(4-fluorophenyl)propylamine], the “Ratio (σ2/σ1)” value at sigma-1 receptor [2] is recorded as 2.49. The Kd on sigma-2 receptor (setting [5]) came to 1.65 µM.
Turning to `CCCNCCc1ccc(F)cc1` [Compound 9], on sigma-1 receptor [2], the Kd stood at 0.091 µM and the “Ratio (σ2/σ1)” value turned out to be 2.53. In addition, binding on sigma-2 receptor was put at a Kd of 0.23 µM.
With `CCCN(Cc1ccc([N+](=O)[O-])cc1)C(=O)CCc1ccc(F)cc1` [Compound 13, N-Propyl-N-(4-nitro-benzyl)-3-(4-fluorophenyl)propionamide], the Kd at sigma-2 receptor (setting [5]) is 236 µM.
As for `CCCN(CCCc1ccc(F)cc1)Cc1ccc(N)c(I)c1` [Compound 14, N-Propyl-N-(4-amino-3-iodo-benzyl)-3-(4-fluorophenyl)propylamine], at sigma-1 receptor [2], the “Ratio (σ2/σ1)” value was 0.3389. The Kd on sigma-1 receptor [2] (setting [4]) worked out at 393 µM; at sigma-2 receptor (setting [5]), 133 µM.
Consider `CCCN(CCCc1ccc(F)cc1)Cc1ccc(N=[N+]=[N-])c(I)c1` [Compound 15], for which, at sigma-1 receptor [2], the “Ratio (σ2/σ1)” value is recorded as 570.8 ^.
For `CCCCNCc1ccc([N+](=O)[O-])cc1` [Compound 16, N-Butyl-N-4-nitrobenzylamine], the “Ratio (σ2/σ1)” value on sigma-1 receptor [2] is on record as 1.4622. For the same compound, the Kd on sigma-1 receptor [2] (setting [4]) stood at 1.15 µM; at sigma-2 receptor (setting [5]), 1.68 µM.
For `CCCN(CCC)CCc1c[nH]c2ccccc12` [DPT, reference compound], the affinity at sigma-1 receptor [3], expressed as Kd, was 1.6 µM.
Turning to `CCCCCCCCCCCCN` [Dodecylamine], the Ki in assay [1] ([3H]-(+)-pentazocine 10 nM) is 0.18 µM and 0.2 µM.
`CCCCN(CCCC)CCCc1ccc(F)cc1` [HD1]: on sigma-1 receptor [3] (read-out: Sigma-1 KD), the Kd came to 0.0177 µM.
On the same count and under the same terms, the same measure for `CCCCN(CCCC)CCCc1ccc([N+](=O)[O-])cc1` [HD2]: 0.00036 µM; for `CCCN(CCCc1ccc([N+](=O)[O-])cc1)CCc1ccc(N)cc1` [HD4]: 0.006 µM.
For `CCCNCCc1ccc(F)cc1` [HD7], binding on sigma-1 receptor [3] was characterised by a dissociation constant (Kd) of 0.091 µM.
Take `CCCCCCCCCCCCCCCCN` [Hexadecylamine]: in assay [1] ([3H]-(+)-pentazocine 10 nM), the Ki is 2.7 µM and 3 µM.
For `CCCCCCN` [Hexylamine], the Ki in assay [1] ([3H]-(+)-pentazocine 10 nM) is 37.5 µM and 37 µM.
As for `CCCCCCCCN` [Octylamine], the Ki in assay [1] ([3H]-(+)-pentazocine 10 nM) was 5.6 µM and 6 µM.
Still for that read-out and setting: the same measure for `CCCCCCCCCCCCCCCCCCN` [Stearylamine]: 8.5 µM and 8 µM.
`CCCCCCCNCCCc1ccccc1` [UC1]: the Kd on sigma-1 receptor [3] (read-out: Sigma-1 KD) was determined as 0.012 µM.
For `CCCCCCCCCCCCNCCCc1ccccc1` [UC3], on sigma-1 receptor [3] (read-out: Sigma-1 KD), the Kd turned out to be 0.092 µM.

(Values after US8946302B2, “Selective sigma-1 receptor ligands” (Wisconsin Alumni Research Foundation, priority 2008, dated 2015).)
